Entries after “also recorded” stand apart in the source; their conditions may differ.
System: healthy subjects
Assay: Phase 1 study, MAD cohorts: serum lipid parameters by NMR LipoProfile
Type: in vivo, human
Conditions: Day 1 to Day 14
Procedure: Lipid parameters, including apolipoprotein B (apoB), were evaluated by NMR LipoProfile® (Labcorp, Burlington, NC. Plasma ApoC3 and ANGPTL3 were evaluated by ELISA (360biolabs, Melbourne, Australia). Peripheral RCT (reverse cholesterol transport) were evaluated by assessing changes in expression of ABCA1/ABCG1 in PBMCs, predose and 4 hours postdose on Days 1 and 14 (Gnomix, Bedford Park, Australia).
Methods. In a randomized, double-blind, placebo (PBO)-controlled Phase 1 study, healthy subjects (n=8/2 Compound 21/3 vs PBO/cohort) received single ascending doses (SAD) of Compound 21/3 (0.5, 2, 6, 12, or 20 mg) or multiple ascending doses (MAD) QD for 14 days (0.5, 2, 6, or 12 mg) while fed or 6 mg fasted. Safety, PK, serum lipid parameters by NMR LipoProfile®, and gene expression in PBMCs were evaluated.
Results. The proportion of subjects with adverse events (AEs) was 60% with PBO and 13-50% with Compound 21/3 in the SAD cohorts (n=50), and 40% and 13-88%, respectively, in the MAD cohorts (n=50). All AEs were mild except an unrelated, Grade 2 thrombophlebitis in a subject on Compound 21/3 2 mg. […] With fasted dosing, exposures were similar on Days 1 and 14 and ˜3-fold higher than with fed dosing. […] In FIG. 13A-13H, figures on graphs indicate median relative (%) change in predose NMR Lipoprofile® parameter from Day 1 to Day 14. […]

Q: How did the HDL-C turn out when `N#Cc1cccc(C#N)c1-c1c(-c2cccc(-c3ccc(C(=O)NCC(=O)O)cc3Cl)c2)n(S(=O)(=O)c2ccc(C(F)F)cc2)c2ccc(F)cc12` [Compound 21/3] was run?
A: not HDL-C

Q: What about the “serum triglycerides, total and LDL-C, total and small LDL particles, TG/HDL-C ratio” value of the same molecule?
A: Significant, dose-dependent reductions; also recorded: significant, dose-dependent improvements

From patent publication US20260083704A1, “LXR MODULATORS WITH BICYCLIC CORE MOIETY FOR TREATING DYSLIPIDEMIAS” (OrsoBio, Inc., priority 2022, published 2026)
